Data taken from patent US20020115642A1, “Beta-lactam antibiotics” (priority 2000, published 2002).
≈ marks a conversion by molar mass, not a printed value. Like-named read-outs stand apart in the source and are kept apart here.

What was measured:
Assay in all cases: Susceptibility testing (MIC, modified NCCLS method)
E. cloacae = type: cell-based, Enterobacter cloacae
Experimental: (§1) The NCCLS (National Committee for Clinical Laboratory Standards) method to determine MIC's of antimicrobial compounds was modified for high-throughput screening. All stocks of tested compounds were prepared in either water or in dimethylsulfoxide (DMSO), depending on the solubility. […] Briefly 20 2-fold serial dilutions of testing compounds from the highest concentration were made in a 384-well microtiter plate. Each well was inoculated with testing bacteria in broth to a final concentration of approximately 1-1.5×10^6 cells/ml. Bacterial growth was determined by the increase of optical density at 600 nm using a microplate reader (Tecan SpectraFluor Plus).

E. aerogenes = type: cell-based, Enterobacter aerogenes
Experimental: as §1

K. pneumoniae = type: cell-based, Klebsiella pneumoniae
Experimental: as §1

Staphylococcus aureus = type: cell-based
Experimental: as §1

E. faecalis = type: cell-based, Enterococcus faecalis
Experimental: as §1

P. aeruginosa = type: cell-based, Pseudomonas aeruginosa
Experimental: as §1

E. coli N = type: cell-based, Escherichia coli; conditions: E. coli (N)
Experimental: as §1

E. coli/TEM-1 = type: cell-based, Escherichia coli
Experimental: as §1

[1] = Staphylococcus aureus, ATCC700260, S. aureus ATCC 700260, read-out: MIC
[2] = Staphylococcus aureus, ATCC700699, S. aureus ATCC 700699, read-out: MIC
[3] = Klebsiella pneumoniae, ATCC700721, K. pneumoniae ATCC 700721, read-out: MIC
[4] = Pseudomonas aeruginosa, ATCC21726, P. aeruginosa ATCC 21726, read-out: MIC

| Compound | MIC (Staphylococcus aureus; S. aureus ATCC 11632) [ng/mL] | MIC (Staphylococcus aureus; S. aureus ATCC 33594) [ng/mL] | MIC (Staphylococcus aureus; S. aureus ATCC 700260) [ng/mL] | MIC (Staphylococcus aureus; S. aureus ATCC 700699) [ng/mL] | MIC (E. faecalis; E. faecalis ATCC 49757) [µg/mL] | MIC (E. faecalis; E. faecalis ATCC 700802) [µg/mL] | MIC (E. cloacae; E. cloacae ATCC 23355) [µg/mL] | MIC (E. aerogenes; E. aerogenes ATCC 35028) [µg/mL] | MIC (K. pneumoniae; K. pneumoniae ATCC 51503) [µg/mL] | MIC (K. pneumoniae; K. pneumoniae ATCC 700721) [µg/mL] | MIC (P. aeruginosa; P. aeruginosa ATCC 21726) [µg/mL] | MIC (P. aeruginosa; P. aeruginosa ATCC 29872) [µg/mL] | other results |
| --- | --- | --- | --- | --- | --- | --- | --- | --- | --- | --- | --- | --- | --- |
| C[C@@H](O)[C@H]1C(=O)N2C(C(=O)O)=C(SCCN=CN)C[C@H]12 [Imipenem, reference compound] |  |  |  |  |  |  |  |  |  |  |  |  | MIC range (E. cloacae; E. cloacae (1)): 0.0078 µg/mL (≈ 0.0261 µM); MIC (E. cloacae; Enterobacter cloacae, E. cloacae (1), read-out: GM* MIC (geometric mean)): 0.0078 µg/mL (≈ 0.0261 µM); MIC range (E. aerogenes; E. aerogenes (5)): 0.5 to 1 µg/mL; MIC (E. aerogenes; Klebsiella aerogenes, E. aerogenes (5), read-out: GM* MIC (geometric mean)): 0.66 µg/mL (≈ 2.2 µM); MIC range (K. pneumoniae; K. pneumoniae (5)): 0.063 to 8 µg/mL; MIC (K. pneumoniae; Klebsiella pneumoniae, K. pneumoniae (5), read-out: GM* MIC (geometric mean)): 0.46 µg/mL (≈ 1.54 µM) |
| O=C(Cc1cccs1)NC1C(=O)N2C(C(=O)O)=C(C=CCOc3ccc(Cl)cc3C(=O)Nc3ccc(Cl)c(Cl)c3)CS[C@H]12 (stereo partly drawn) [Compound 35, 3-{3-[4-Chloro-2-(3,4-dichloro-phenylcarbamoyl)-phenoxy]-propenyl}-7-(2-thiophene-acetmido)-3-cephem-4-carboxylic acid] | 63 (≈ 0.0928 µM) | 63 (≈ 0.0928 µM) | 250 (≈ 0.368 µM) | >32000 | 8 (≈ 11.8 µM) | >32 | >32 | >32 | >32 | >32 | >32 | >32 |  |
| O=C(O)CCC(=O)N[C@@H]1C(=O)N2C(C(=O)O)=C(COc3cc(Cl)ccc3Oc3ccc(Cl)cc3Cl)CS[C@H]12 [Compound 36] |  |  |  |  |  |  |  |  |  |  |  |  | MIC (Staphylococcus aureus; Staphylococcus aureus, ATCC11632, S. aureus ATCC 11632, read-out: MIC): > 32000 ng/mL; MIC (Staphylococcus aureus; Staphylococcus aureus, ATCC33591, S. aureus ATCC 33591, read-out: MIC): 2000 ng/mL (≈ 3.32 µM); MIC (Staphylococcus aureus; Staphylococcus aureus, ATCC33594, S. aureus ATCC 33594, read-out: MIC): > 32000 ng/mL; MIC (Staphylococcus aureus; [1]): > 32000 ng/mL; MIC (Staphylococcus aureus; [2]): > 32000 ng/mL; MIC (E. faecalis; Enterococcus faecalis, ATCC49757, E. faecalis ATCC 49757, read-out: MIC): > 32 µg/mL; MIC (E. faecalis; Enterococcus faecalis, ATCC700802, E. faecalis ATCC 700802, read-out: MIC): > 32 µg/mL; MIC (E. cloacae; Enterobacter cloacae, ATCC23355, E. cloacae ATCC 23355, read-out: MIC): > 32 µg/mL; MIC (E. aerogenes; Klebsiella aerogenes, ATCC35028, E. aerogenes ATCC 35028, read-out: MIC): > 32 µg/mL; MIC (K. pneumoniae; Klebsiella pneumoniae, ATCC51503, K. pneumoniae ATCC 51503, read-out: MIC): > 32 µg/mL; MIC (K. pneumoniae; [3]): > 32 µg/mL; MIC (P. aeruginosa; [4]): > 32 µg/mL; MIC (P. aeruginosa; Pseudomonas aeruginosa, ATCC29872, P. aeruginosa ATCC 29872, read-out: MIC): > 32 µg/mL |
| 3-(2-(2,4-Dichlorophenoxy)-5-chlorophenoxy)methyl-7-[4-(2-aminothiazole)-yl-2-acetamido]-3-cephem-4-carboxylic acid [Compound 39] |  |  | 2 | 4000 | 16 |  |  | >16 | 16 |  | >16 |  | MIC (E. coli N): 1 µg/mL; MIC (E. coli/TEM-1; E. coli/Tem-1): 0.063 µg/mL |
| CC(=O)NC1C(=O)N2C(C(=O)O)=C(COc3cc(Cl)ccc3Oc3ccc(Cl)cc3Cl)CSC12 (stereo not drawn) [Compound 45] | >32000 | 63 (≈ 0.116 µM) | 63 (≈ 0.116 µM) | 16000 (≈ 29.4 µM) | 16 (≈ 29.4 µM) | 32 (≈ 58.8 µM) | >32 | >32 | 8 (≈ 14.7 µM) | 2 (≈ 3.68 µM) | >32 | >32 |  |
| O=C(Cc1cccs1)NC1C(=O)N2C(C(=O)O)=C(COC(=O)Oc3cc(Cl)ccc3Oc3ccc(Cl)cc3Cl)C[S+]([O-])[C@H]12 (stereo partly drawn) [Compound 17, 3-((2-(2,4-Dichlorophenoxy)-5-chlorophenoxy)carbonyloxy)methyl-7-(2-thienylacetamido)-1-oxo-3-cephem-4-carboxylic acid] |  |  |  |  |  |  |  |  |  |  |  |  | MIC (E. coli N; Escherichia coli, read-out: MIC): 0.016 µg/mL (≈ 0.0233 µM); MIC (E. coli/TEM-1; Escherichia coli): 0.032 µg/mL (≈ 0.0467 µM); MIC (Staphylococcus aureus; [1]): 0.063 ng/mL (≈ 9.18e-05 µM); MIC (Staphylococcus aureus; [2]): 0.25 ng/mL (≈ 0.000364 µM); MIC (K. pneumoniae; [3]): 1.03 µg/mL (≈ 1.5 µM); MIC (P. aeruginosa; [4]): > 16.5 µg/mL |
| CON=C(C(=O)NC1C(=O)N2C(C(=O)O)=C(COc3cc(Cl)ccc3Oc3ccc(Cl)cc3Cl)CSC12)c1csc(N)n1 (stereo not drawn) [Compound 44] | 500 (≈ 0.73 µM) | 63 (≈ 0.092 µM) | 63 (≈ 0.092 µM) | >32000 | 32 (≈ 46.7 µM) | 32 (≈ 46.7 µM) | 4 (≈ 5.84 µM) | >32 | 8 (≈ 11.7 µM) | 8 (≈ 11.7 µM) | >32 | >32 |  |
